Reference: patent US7851474B2, “Dipiperazinyl ketones and related analogues” (Neurogen Corporation, priority 2005, dated 2010)

These molecules were tested against T1, chimeric human H3 receptor (Homo sapiens, UniProt Q9Y5N1, E19D) (assay: Chimeric human H3 receptor screening GTP binding assay (inhibition of histamine-stimulated GTP-gamma35S binding, Example 8)). Settings: 1 h; Table II "Ki", symbol "+": assay described in Example 8; read-out: percent inhibition of agonist-induced GTP-gammaS binding to H3.
T1 construct: made in house; host or cells: Sf9 insect cells (baculovirus infection); P2 membrane preparation
T1 sequence (Q9Y5N1 with tags, fused parts or gaps E19D): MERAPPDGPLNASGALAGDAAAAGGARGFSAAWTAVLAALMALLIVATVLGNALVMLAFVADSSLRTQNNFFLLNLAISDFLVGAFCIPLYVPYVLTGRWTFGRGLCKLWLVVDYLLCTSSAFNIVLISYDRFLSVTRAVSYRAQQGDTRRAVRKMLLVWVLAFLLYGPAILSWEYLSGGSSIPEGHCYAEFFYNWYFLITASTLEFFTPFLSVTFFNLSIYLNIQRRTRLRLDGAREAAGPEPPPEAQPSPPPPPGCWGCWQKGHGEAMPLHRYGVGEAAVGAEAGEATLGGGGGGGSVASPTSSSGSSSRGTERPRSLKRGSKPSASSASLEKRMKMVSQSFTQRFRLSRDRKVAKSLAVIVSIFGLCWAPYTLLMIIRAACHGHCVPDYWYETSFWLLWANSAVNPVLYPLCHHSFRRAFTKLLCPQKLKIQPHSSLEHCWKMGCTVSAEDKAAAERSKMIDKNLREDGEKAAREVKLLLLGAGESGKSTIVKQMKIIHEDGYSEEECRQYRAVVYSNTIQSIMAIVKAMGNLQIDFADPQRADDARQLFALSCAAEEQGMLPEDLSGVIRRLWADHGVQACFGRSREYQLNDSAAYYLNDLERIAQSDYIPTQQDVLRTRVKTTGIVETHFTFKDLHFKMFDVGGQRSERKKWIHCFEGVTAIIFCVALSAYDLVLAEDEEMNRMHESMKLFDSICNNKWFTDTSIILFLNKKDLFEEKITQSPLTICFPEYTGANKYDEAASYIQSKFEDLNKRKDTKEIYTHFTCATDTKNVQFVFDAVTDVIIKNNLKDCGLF
Assay type: biochemical
In short: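 Sf9 membranes co-expressing the chimeric receptor and a heterotrimeric G-protein (35 μg protein) in Tris pH 7.4 buffer with 10 μM GDP; compound at 4 μM plus 1 μM histamine, 125 pM GTP-gamma35S, 60 min at room temperature. Filter-bound radioactivity read; non-specific binding defined with 10 uM GTP-gammaS; percent inhibition of histamine signal.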
For `O=C(CN1CCN(C(=O)c2ccno2)CC1)N1CCN(C2CCC2)CC1` [Compound 795, 1-cyclobutyl-4-{[4-(isoxazol-5-ylcarbonyl)piperazin-1-yl]acetyl}piperazine], the inhibition at 4 µM was greater than 90%.
For `Cc1cc(C)c(C(=O)N2CCN(CC(=O)N3CCN(C4CCC4)CC3)CC2)c(C)c1` [Compound 796, 1-cyclobutyl-4-{[4-(mesitylcarbonyl)piperazin-1-yl]acetyl}piperazine], the inhibition at 4 µM was greater than 90%.
Work on `O=C(COc1ccccc1)N1CCN(CC(=O)N2CCN(C3CCC3)CC2)CC1` [Compound 797, 1-cyclobutyl-4-{[4-(phenoxyacetyl)piperazin-1-yl]acetyl}piperazine] yielded an inhibition at 4 µM greater than 90%.
For `O=C(Cc1ccccc1)N1CCN(CC(=O)N2CCN(C3CCC3)CC2)CC1` [Compound 798, 1-cyclobutyl-4-{[4-(phenylacetyl)piperazin-1-yl]acetyl}piperazine], the inhibition at 4 µM was greater than 90%.
Work on `O=C(CN1CCN(C(=O)c2ccccn2)CC1)N1CCN(C2CCC2)CC1` [Compound 799, 1-cyclobutyl-4-{[4-(pyridin-2-ylcarbonyl)piperazin-1-yl]acetyl}piperazine] yielded an inhibition at 4 µM greater than 90%.
For `O=C(CN1CCN(C(=O)c2cccnc2)CC1)N1CCN(C2CCC2)CC1` [Compound 800, 1-cyclobutyl-4-{[4-(pyridin-3-ylcarbonyl)piperazin-1-yl]acetyl}piperazine], the inhibition at 4 µM was greater than 90%.
In the case of `CCC(C)N1CCN(C(=O)CN2CCN(C(=O)C3CCCO3)CC2)CC1` (stereo not drawn) [Compound 886, 1-sec-butyl-4-{[4-(tetrahydrofuran-2-ylcarbonyl)piperazin-1-yl]acetyl}piperazine], the inhibition at 4 µM is reported as greater than 90%.
`Cn1c(C(=O)N2CCN(CC(=O)N3CCN(C4CCC4)CC3)CC2)cc2ccccc21` [Compound 887, 2-({4-[2-(4-cyclobutylpiperazin-1-yl)-2-oxoethyl]piperazin-1-yl}carbonyl)-1-methyl-1H-indole] showed an inhibition at 4 µM greater than 90%.
`CCn1c(C(=O)N2CCN(CC(=O)N3CCN(C4CCC4)CC3)CC2)cc2ccccc21` [Compound 888, 2-({4-[2-(4-cyclobutylpiperazin-1-yl)-2-oxoethyl]piperazin-1-yl}carbonyl)-1-ethyl-1H-indole] was tested, and the inhibition at 4 µM was greater than 90%.
Work on `CCCn1c(C(=O)N2CCN(CC(=O)N3CCN(C4CCC4)CC3)CC2)cc2ccccc21` [Compound 889, 2-({4-[2-(4-cyclobutylpiperazin-1-yl)-2-oxoethyl]piperazin-1-yl}carbonyl)-1-propyl-1H-indole] yielded an inhibition at 4 µM greater than 90%.
For `Nc1ccccc1C(=O)N1CCN(CC(=O)N2CCN(C3CCC3)CC2)CC1` [Compound 890, 2-({4-[2-(4-cyclobutylpiperazin-1-yl)-2-oxoethyl]piperazin-1-yl}carbonyl)aniline], the inhibition at 4 µM was greater than 90%.
`CNc1ccccc1C(=O)N1CCN(CC(=O)N2CCN(C3CCC3)CC2)CC1` [Compound 891, 2-({4-[2-(4-cyclobutylpiperazin-1-yl)-2-oxoethyl]piperazin-1-yl}carbonyl)-N-methylaniline] gave an inhibition at 4 µM greater than 90%.
With `Cc1cccc(C(=O)N2CCN(CC(=O)N3CCN(C4CCC4)CC3)CC2)c1N` [Compound 892, 2-({4-[2-(4-cyclobutylpiperazin-1-yl)-2-oxoethyl]piperazin-1-yl}carbonyl)-6-methylaniline] the inhibition at 4 µM was greater than 90%.
With `Cc1ccc(N)c(C(=O)N2CCN(CC(=O)N3CCN(C4CCC4)CC3)CC2)c1` [Compound 893, 2-({4-[2-(4-cyclobutylpiperazin-1-yl)-2-oxoethyl]piperazin-1-yl}carbonyl)-4-methylaniline] the inhibition at 4 µM was greater than 90%.
For `Cc1cnc(C(=O)N2CCN(CC(=O)N3CCN(C4CCC4)CC3)CC2)cn1` [Compound 894, 2-({4-[2-(4-cyclobutylpiperazin-1-yl)-2-oxoethyl]piperazin-1-yl}carbonyl)-5-methylpyrazine], the inhibition at 4 µM was greater than 90%.
`COc1cc(C(=O)N2CCN(CC(=O)N3CCN(C4CCC4)CC3)CC2)nc2ccccc12` [Compound 895, 2-({4-[2-(4-cyclobutylpiperazin-1-yl)-2-oxoethyl]piperazin-1-yl}carbonyl)-4-methoxyquinoline] showed an inhibition at 4 µM greater than 90%.

Same assay, conditions: 1 h; Table II; assay of Example 8; "+" in Ki; read-out: percent inhibition of agonist-induced GTP-gammaS binding to H3
`O=C(CN1CCN(C(=O)c2cnc3ccccc3c2)CC1)N1CCN(C2CCC2)CC1` [Compound 985, 3-({4-[2-(4-cyclobutylpiperazin-1-yl)-2-oxoethyl]piperazin-1-yl}carbonyl)quinoline] gave an inhibition at 4 µM greater than 90%.
`CNc1ccc(C(=O)N2CCN(CC(=O)N3CCN(C4CCC4)CC3)CC2)cc1` [Compound 1088] showed an inhibition at 4 µM greater than 90%.
Molecule `O=C(CN1CCN(C(=O)c2cc(-c3ccccc3)nc3ccccc23)CC1)N1CCN(C2CCC2)CC1` [Compound 1089] has an inhibition at 4 µM greater than 90%.
Work on `O=C(CN1CCN(C(=O)c2c(-c3ccccc3)nnc3ccccc23)CC1)N1CCN(C2CCC2)CC1` [Compound 1090] yielded an inhibition at 4 µM greater than 90%.

Same assay, conditions: 1 h; assay of Example 8; "+" in Ki of Table II; read-out: percent inhibition of agonist-induced GTP-gammaS binding to H3
Work on `Nc1ccc(Cl)cc1C(=O)N1CCN(CC(=O)N2CCN(C3CCC3)CC2)CC1` [Compound 1151, 4-chloro-2-({4-[2-(4-cyclobutylpiperazin-1-yl)-2-oxoethyl]piperazin-1-yl}carbonyl)aniline] yielded an inhibition at 4 µM greater than 90%.
For `Cc1ccc(C(=O)N2CCN(CC(=O)N3CCN(C4CCC4)CC3)CC2)cc1N` [Compound 1153, 5-({4-[2-(4-cyclobutylpiperazin-1-yl)-2-oxoethyl]piperazin-1-yl}carbonyl)-2-methylaniline], the inhibition at 4 µM was greater than 90%.
For `Nc1cc(Cl)ccc1C(=O)N1CCN(CC(=O)N2CCN(C3CCC3)CC2)CC1` [Compound 1163, 5-chloro-2-({4-[2-(4-cyclobutylpiperazin-1-yl)-2-oxoethyl]piperazin-1-yl}carbonyl)aniline], the inhibition at 4 µM was greater than 90%.
With `CSc1ncc(Cl)c(C(=O)N2CCN(CC(=O)N3CCN(C4CCC4)CC3)CC2)n1` [Compound 1164, 5-chloro-4-({4-[2-(4-cyclobutylpiperazin-1-yl)-2-oxoethyl]piperazin-1-yl}carbonyl)-2-(methylthio)pyrimidine] the inhibition at 4 µM was greater than 90%.
